Reference: a melting point compilation (Tetko et al.; mined from patent text by program, amines drawn as free bases though some values may be those of a salt)

Compound | melting point [°C]
COc1ccc(CN(C)CCCCc2ccc(NC(=O)c3cccc4c(=O)c5ccccc5n(C)c34)cc2)cc1OC | 142
CCc1oc2ccc(Cl)cc2c1C(=O)c1cc(Br)c(O)c(Br)c1 | 126 to 128
Cc1cccc(-n2nc(C)cc2N)n1 | 149 to 150
COC(=O)/C=C/COc1cc(-n2ncc(C(F)(F)F)c(C)c2=O)c(F)cc1Cl | 153
CCN(CC)c1nc(Cl)nc(Cl)n1 | 77 to 79
NS(=O)(=O)c1cc2[nH]c(CCc3ccccc3)nc2cc1Cl | 226 to 228
CCOC(=O)c1c(-c2ccc(OC)c(OC)c2)c2cc(OC)c(OC)cc2[nH]c1=O | 273 to 276
CCOC(=O)c1c(C#N)nn(-c2c(Cl)cc(C(F)(F)F)cc2Cl)c1N | 202
O=c1c2ccc3cc[nH]c3c2ccn1Cc1ccccc1 | 211 to 213
Cn1nc(-c2ccc(F)cc2)c(-c2ccncc2)c1CC(=O)Cc1ccccc1 | 148 to 151
FC(F)(F)/C(=C(\c1ccccc1)c1ccc(OCCN2CCCC2)cc1)c1ccccc1 | 84.5 to 86
O=C(O)Cc1cccc2nnsc12 | 148 to 150
C#Cc1cnn2c(C)cc(-c3ccc(C(F)(F)F)cc3)nc12 | 89 to 90
CCCC(NC(C)C(=O)N1C(C(=O)O)CC2CCCCC21)C(=O)OCC (stereo not drawn) | 86 to 92
O=c1cc(-c2cnccn2)ss1 | 181
COc1cccc(-n2c(-c3sc(Nc4ccccc4)nc3C)nc3ccccc3c2=O)c1 | > 275
CCCCn1cc(C(=O)C(=O)O)c2cc(-c3ccc(Cl)cc3)ccc21 | 136 to 137
CCCn1nc2c(N)nc3ccccc3c2c1CCCc1ccn(Cc2ccccc2)c1 | 138 to 140
CNCc1cccc(C2CCN(c3c(F)c(N)c4c(=O)c(C(=O)O)cn(C5CC5)c4c3F)C2)c1 (stereo not drawn) | > 270
COC1=CC(=O)c2c(O)c(CO)c(CC(C)O)c(O)c2C1=O (stereo not drawn) | 206 to 212
COc1ncc(Cc2nnc(Nc3ccc(C(C)(C)C)cc3)c3ccccc23)cc1-c1ccco1 | 180 to 182

Compound | melting point [°C]
Cc1nnc(-c2ccc3occ(-c4ccc(S(=O)(=O)N(C)C)cc4)c3c2)o1 | 246 to 247
Cc1cc(-c2ccc(Cl)cc2)sc1C(=O)O | 245 to 246
COc1ccc(CN2CCc3cc(O)ccc3C2)c(OC)c1 | 149 to 152
CCOC(=O)c1sc(SC)c2c1CCc1sc(C)nc1-2 | 143 to 144
CCOc1cccc(-c2ccc(C3=CCN(S(=O)(=O)C4(C(=O)O)CCOCC4)CC3)cc2C)c1 | 203 to 205
CCCc1nc2c(N)nc3cc(Oc4cccc(NCC)c4)ccc3c2n1CC(C)C | 168 to 174
CC1(C)CCCC(C)(C)N1CCOC(=O)C(Cc1ccccc1)(Cc1ccccc1)C(=O)OCCN1C(C)(C)CCCC1(C)C | 77 to 78
Nc1cc(O)nn1-c1c(Cl)cc(Cl)cc1Cl | 221 to 223
COCCN(C)Cc1ncc(C(=O)Nc2nc3c(OC)ccc(N4CCOCC4)c3s2)n1C | 176 to 178
N#Cc1c(-c2ccccc2)sc2c1CNCC2c1ccccc1 (stereo not drawn) | 160
N#Cc1ccc(C2NC(=O)NC2=O)c(N2CCCC2)c1 (stereo not drawn) | 154
Cc1ccc(-c2ccc3c(c2)C=C(C(=O)Nc2ccc(-c4ccccn4)cc2)CCO3)cc1 | 228 to 229
COC(=O)CNC(=O)c1ccc(Cl)c(Cl)c1 | 133 to 134
OC(c1ccc(Cl)cc1)(c1ccc(Cl)cc1)c1cn[nH]c1 | 135 to 137
COc1nc(OC)nc(-n2c(C(F)(F)F)nc3cc(C)ccc32)n1 | 137 to 140
COC(=O)C(CCc1ccc(C#N)cc1)C(N)=O (stereo not drawn) | 125
C=CC[C@@H]1C[C@@H](COC(c2ccccc2)(c2ccccc2)c2ccccc2)N(Cc2ccc(OC)cc2)C1=O | 130 to 132
Cc1ccc(Oc2cccc(NC(=O)c3ccn4c3CSC4c3cccnc3)c2)cc1 (stereo not drawn) | 110
O=C(NNC(=O)C(F)(F)C(O)(Cn1cncn1)c1ccc(F)cc1F)c1ccc(F)cc1 (stereo not drawn) | 127 to 130
Cc1cc(O)cc(Br)c1C | 98 to 99
CC(=O)NCC(C)(C)c1ccc2nc(-c3c[nH]cn3)[nH]c2c1 | 235 to 237

Compound | melting point [°C]
O=C(O)CCCCc1nc(NCc2ccc3c(c2)OCO3)c2cc(Cl)sc2n1 | 130
CCCNC(=O)Oc1ccc(C(O)(CC)c2ccc(F)cc2)cc1 (stereo not drawn) | 107 to 108
CC(C)CNC(=O)[C@H](C)C[C@H](O)[C@H](CC1CCCCC1)NC(=O)[C@H](Cc1cscn1)NC(=O)OC(C)(C)C | 178 to 180
CN(C)C(=O)c1cc(-c2ncc(C(F)(F)F)cc2Cl)ccc1Cl | 90 to 91
CCCCc1cc2c(C)n(C)nc2c(N)n1 | 130 to 131
COc1ccc(-c2nc(C(=O)c3ccc(F)cc3)c[nH]2)cc1 | 245 to 247
COc1ccc(-c2[nH]nc3c2C(=O)c2c(NC=O)cccc2-3)cc1 | 280
O=C(CCCI)c1ccc(F)cc1O | 41.4
CCOc1nc(Nc2ccc(F)c(Cl)c2)nc(NC2CCN(S(C)(=O)=O)CC2)n1 | 197 to 199
CSc1nc2cncnc2n1Cc1ccc(F)cc1 | 167
CC12CCC(F)CC1=CCC1C2CCC2(C)C(O)CCC12 (stereo not drawn) | 165 to 166
C1=C(c2cc3ccccc3[nH]2)CCN(CCC2Cc3ccccc3C2)C1 | 175 to 176
C=C(COc1cc(Cl)ccc1C=NNP(=O)(OCC)OCC)C(C)C | 103 to 106
c1coc(C2=NOCCS2)c1 | 147 to 150
N#Cc1cccc(-c2ccc(OCC(CN3C(=O)CCC3=O)N(O)C=O)cc2)c1 (stereo not drawn) | 128
CCOC(=O)C(C(=O)Cc1cc(OC(C)C)c(Cl)cc1F)=C(N)C(F)(F)F | 58 to 59
CCOC(=O)c1ccc(OCCCCCCCCc2cc(C)no2)cc1 | 49
Cc1nscc1C(=O)NC1CC1 | 106 to 108
NC(=O)c1c(-c2ccc(F)cc2)cc2c3c1ccn3C(=O)CNC2 | 287 to 289
CC[C@H](c1ccc(C(F)(F)F)cc1)N(Cc1ccc(C(=O)O)cc1)S(=O)(=O)c1ccc(Cl)cc1 | 105 to 107

Further lines, results first:

melting point [°C] | Compound
166 to 168 | O=C1c2ccccc2C(=O)N1C1CCCc2sccc21 (stereo not drawn)
72 to 74 | CS(=O)(=O)OCC1CCN(C(=O)OCc2ccccc2)CC1
158 to 161 | CON=C(C)CCCn1c(C)nc2c(N)nc3ccccc3c21
176 to 178 | CCn1c(=O)c(CC(=O)OC)cc2ccc(O)cc21
122 to 123 | CC(=O)NCCSCC(=O)[C@H](Cc1ccccc1)NC(=O)[C@H](CC(C)C)NC(=O)OCc1ccccc1
88 to 89 | Cc1ccc(C)c(C(CO)c2ccc(C(C)C)cc2)c1O (stereo not drawn)
> 250 | Cc1ccsc1-c1ccc(C(C)(N)C(=O)O)cc1 (stereo not drawn)
152 to 153 | Cc1cc(C)cc(COC(=O)C(Cc2c[nH]c3ccccc23)NC(=O)OC(C)(C)C)c1 (stereo not drawn)
184 to 185 | CCCCCC(C)N(C=C1C(=O)OC(C)(CNc2cc(C(C)(C)C)c(O)c(C(C)(C)C)c2)OC1=O)Cc1ccc(CC(C)(C)C)s1 (stereo not drawn)
122 to 124 | O=C1OC(CO)CN1c1ccccc1 (stereo not drawn)
139 to 140 | CC1=C(C(=O)OCCN(C)Cc2ccccc2)C(c2cccc([N+](=O)[O-])c2)C(P2(=O)OCCCO2)=C(C)N1 (stereo not drawn)
215 to 218 | Cc1ccc2c(c1Cl)C(=O)N(C(C)(C(N)=O)C(C)C)C2=O (stereo not drawn)
213 to 214 | CC(C(=O)O)c1ccc2c(c1)C(=O)Cc1cc(F)ccc1S2 (stereo not drawn)
106 to 108 | COc1cc2c3ccc(OC)c(OC)c3n(C(=O)CCc3ccccc3)c2cc1OC
194 to 195 | C[C@@]1(NC(=O)c2cc3cccc4c3n2CCC4)C(=O)N(c2ccccc2F)c2ccccc21
87 to 89 | CCOC(=NC(=O)CCl)N1Cc2ccccc2-c2ccccc2C1
93 to 94.5 | CCN(CC)CCSc1nnc(SCN2C(=O)c3ccccc3S2(=O)=O)s1
177 to 178 | C[C@H](c1ccccc1)N1C(=O)N(C(=O)OC(C)(C)C)[C@@H]2C(=O)OC[C@@H]21

melting point [°C] | Compound
53 to 55 | CC(C)(C)OC(=O)N1CO[C@@](O[Si](C)(C)C)(C(F)(F)F)[C@@H]1Cc1ccccc1
130 to 148 | CC(C)(C)OC(=O)Nc1cc(NCCO)c(I)cc1[N+](=O)[O-]
110 to 114 | CC(Cc1c[nH]c2ccccc12)(NC(=O)OC1C2CC3CC(C2)CC1C3)C(=O)NC(CNC(=O)CCC(=O)O)Cc1ccccc1 (stereo not drawn)
187 to 188 | CC1=C(C(=O)OC(C)C)C(c2cccc([N+](=O)[O-])c2)n2c(cc(=O)n2S(=O)(=O)c2ccccc2)N1 (stereo not drawn)
164 to 165 | CC(=O)c1ccc(NC(=O)NCC2(c3ccccc3)CCCCC2)cc1
185 to 186 | Cn1cc(-c2cccc(N3Cc4cc(C(C)(C)C)ccc4C3=O)c2CO)cc(Nc2ccc(C3CNC3)cn2)c1=O
> 300 | CC(C)n1nc(-c2c(-c3ccccc3)nc(N)nc2N2CCCC2)ccc1=O
133 to 135 | CC(C)(C)OC(=O)N1C[C@H](n2ccc(NC(=O)c3ccccc3)nc2=O)C[C@@H]1C(=O)OC(c1ccccc1)c1ccccc1
159 to 160 | CC(C)(C)NC(=O)[C@@H]1C[C@H](Br)CN1C(=O)OC(C)(C)C
173 to 175 | Cc1ccc(C(=O)Nc2ccc(N3CCN(C(=O)OC(C)(C)C)CC3)cc2)c(-c2ccc(C(C)C)cc2)c1
260 to 263 | CC1(C)CS(=O)(=O)CC(C)(C)c2[nH]c(-c3ccccc3)nc21
69.2 to 70 | CC(C)(COCc1cccc(Oc2ccccc2)c1)c1ccc(O)cc1
99.5 to 101 | COc1ccc2c(c1)C(=O)OCN2c1ccccc1
179 to 182 | CC(C)CC(=O)Nc1cccc(-c2ccnc3c(-c4cccc(CN(C)C)c4)cnn23)c1
> 300 | Cn1ccc(-c2[nH]nc3c2C(=O)c2c(NC(N)=O)cccc2-3)c1
108 to 110 | CC(C)(C)c1cc(C(=O)c2cccs2)cc(CN(CCO)CCO)c1O
110 to 111 | COc1ccc(Oc2ccccc2)c(NS(C)(=O)=O)c1
246 to 247 | COc1cc2c(c3c1OC(C)(C)C3)C(c1cccc(NC(C)=O)c1)=NC(C)(C)C2
